# Source: PMC9414676, “Experimental Studies Indicate That ST-2223, the Antagonist of Histamine H3 and Dopamine D2/D3 Receptors, Restores Social Deficits and Neurotransmission Dysregulation in Mouse Model of Autism” (Pharmaceuticals, 2022)
# Columns and labels:
# [1] = test system: dopamine levels in BTBR mice brain; assay: Dopamine levels by LC-MS/MS in brain regions; assay type: in vivo; design: key to Dopamine level: ↔: No significant alterations; ↑: significant increase; ↑↑: additional significant increase vs. ST-2223-treated mice; ↓: significant decrease; settings: ARP 1 mg/kg i.p. chronic, vs VEH-treated BTBR mice
# Procedure: (§1) All the mice were randomly divided into nine groups of 5–7 mice each. The mice were injected intraperitonially once daily for 21 days with different doses of ST2223 (2.5, 5, and 10 mg/kg, i.p.), ARP 1 mg/kg or vehicle (1% DMSO in 0.9% normal saline). Group I, B6 mice were injected with vehicle served as control. Group II, BTBR mice were treated with vehicle. Groups III–V, BTBR mice received i.p. injections of different doses of ST2223 (2.5, 5, and 10 mg/kg, i.p.), respectively. Group VI, BTBR mice were injected with ARP (1 mg/kg, i.p.). For abrogation studies, Group VII, BTBR mice were treated with ST2223 (5 mg/kg, i.p.) along with RAM (10 mg/kg, i.p.). Group VIII, B6 mice were co-injected with vehicle and RAM (10 mg/kg, i.p). All treatments and vehicle (VEH) were administered 30–45 min before each behavioral test. The doses of these drugs were selected based on previous reports. Behavioral testing was performed between 9:00 am and 3:00 pm in an order randomized by group and in the following sequence: social approach test (SAT) and open field locomotor test (OFL). The chronic treatment started one week before the behavioral test and was continued for a total of 21 days as described above (Figure 7). Following behavioral tests, i.e., on day 21 of systemic treatment, five of the animals were sacrificed. The animals were deeply anesthetized with pentobarbital (40 mg/kg, i.p., body weight). To wash out the blood, cardiac perfusion was carried out using 0.01 M phosphate-buffered saline (PBS) at pH 7.4. The brains were quickly removed and placed on an ice plate, where the cerebellum, hippocampus, prefrontal cortex, and striatum were excised from the brain and snap-frozen in liquid nitrogen for later LC-MS/MS analysis.
# (§2) Perfusion was done on anesthetized animals using 1X PBS as described previously. Different regions of the brain were snap frozen. Frozen tissues were then weighed and homogenized in a 10-fold volume of acetonitrile. For 50mg of tissue, 500 µL of acetonitrile and Internal standard mix were added and homogenized. Homogenates were centrifuged at 15,000 rcf for 15 min at 4 °C. Tissue levels of dopamine, acetylcholine, histamine, and their metabolites were assessed using LC-MS/MS. LC-MS/MS analysis was conducted utilizing Waters BEH C18 COLUMN (2.1 × 100 mm, 1.7 µm) using Waters Acquity UPLC Binary Solvent Manager and FTN Sample Manager. The system was run in gradient mode with mobile phase A consisting of LC-MS GRADE WATER + 0.1% FORMIC ACID and mobile phase B consisting of 100% ACETONITRILE. Mobile phase was duly filtered through 0.2 µm filter and degassed ultrasonically for 15 min prior to use. Separations were performed at room temperature with 0.3 mL/min flow rate gradient starting with 90% of A for up to 0.5 min. Then, % of A was decreased gradually until it reached 20% at 2.5 min after which at 3 min %A was brought back to the initial condition and left for equilibration for 2 more minutes before the next injection (total 5 min run time). The injection volume was kept at 1 µL. Mass spectrometric detection was performed in multiple reaction monitoring (MRM) mode with positive electrospray ionization (ESI+) on Xevo TQS mass spectrometer (Waters, Milford, MA) equipped with an electrospray ionization (ESI) source and triple quadrupole mass analyzer. MRM transitions and instrument parameters were set by tuning the instrument by infusing each analyte. MRM transitions taken for quantification were 146.2 > 87.1 for Acetylcholine, 112.2 > 95.2 for Histamine, 154.1 > 137.2 for Dopamine, 150.2 > 91.3 for Acetylcholine D4, and […] > 99.3 for Histamine D4. Capillary Voltage, Source Offset, Source Temperature, De solvation Temperature, Cone Gas Flow, De solvation Gas Flow, Collision Gas Flow, Nebulizer Gas Flow were set as 3.0 (kV), 60.0 (V), 150 (°C), 550 (°C), 150 (L/Hr), 1000 (L/Hr), 0.13 (mL/min), and 7 (Bar), correspondingly. […]
# [2] = test system: histamine levels in BTBR mice brain; assay: Histamine levels by LC-MS/MS in brain regions; assay type: in vivo; design: key to Histamine level: ↔: No significant alterations; ↑: significant increase; ↑↑: additional significant increase vs. ST-2223-treated mice; ↓: significant decrease; settings: ARP 1 mg/kg i.p. chronic, vs VEH-treated BTBR mice
# Procedure: as §1, §2
# [3] = test system: prefrontal cortex of B6 mice; design: method as in PMID 16023290; settings: 0.3 mg/kg of ARP; cited from earlier work
# [4] = test system: BTBR mice; assay: Social approach test (SAT), social novelty preference (novel mouse vs familiar mouse); assay type: in vivo; settings: ARP 1 mg/kg i.p. chronic, p < 0.001
# Procedure: as §1
# The social approach test (SAT) was performed using an automated three-chamber device (EthoVision® Software, Noldus, The Netherlands) as previously described. The transparent polycarbonate chamber is rectangular and is composed of three interconnected partitions (homemade), which are separated by two sliding doors. […] For 10 min, the test mouse was allowed to explore all three chambers and cups, and the time spent interacting with NO and NM (sniffing) was automatically recorded by EthoVision® Software. […] The study mouse is allowed to explore the three chambers for 10 min, and the time spent for interacting with both mice was automatically recorded, to assess social novelty preference. […] To allow the direct comparison of social behavior between the treated groups, the sociability index (SI) and social novelty index (SNI) were calculated with the following formula, as previously described: SI=(Time exploring NM−Time exploring NO)/(Time exploring NM+Time exploring NO) SNI=(Time exploring NM−Time exploring FM)/(Time exploring NM+Time exploring FM)
# [5] = test system: BTBR mice; assay: Social approach test (SAT), sociability (novel mouse vs novel object); assay type: in vivo; settings: ARP 1 mg/kg i.p. chronic
# Procedure: as §1
# The social approach test (SAT) was performed using an automated three-chamber device (EthoVision® Software, Noldus, The Netherlands) as previously described. The transparent polycarbonate chamber is rectangular and is composed of three interconnected partitions (homemade), which are separated by two sliding doors. In brief, after 10 min of habituation, the study mouse was placed in the central chamber with the doors opened, and the mouse was given the choice to interact with either an empty plastic cup located in one side chamber, referred to as a novel object (NO), or a similar plastic cup with an unfamiliar mouse inside it located in the opposite chamber, referred to as a novel mouse (NM), which was matched in age, sex, and strain with test mouse. To avoid innate side preferences, the plastic cup for NO and NM were randomly placed in either chamber and the placement was changed between studies and between mice. For 10 min, the test mouse was allowed to explore all three chambers and cups, and the time spent interacting with NO and NM (sniffing) was automatically recorded by EthoVision® Software. Immediately after this session, a novel mouse is kept in the empty cup and is referred to as novel mouse (NM), and the mouse in the other cup from the earlier session is referred to as familiar mouse (FM). The study mouse is allowed to explore the three chambers for 10 min, and the time spent for interacting with both mice was automatically recorded, to assess social novelty preference. Eight groups of 7 mice/group were used for the SAT. To allow the direct comparison of social behavior between the treated groups, the sociability index (SI) and social novelty index (SNI) were calculated with the following formula, as previously described: SI=(Time exploring NM−Time exploring NO)/(Time exploring NM+Time exploring NO) SNI=(Time exploring NM−Time exploring FM)/(Time exploring NM+Time exploring FM)
# [6] = test system: acetylcholine levels in BTBR mice brain; assay: Acetylcholine levels by LC-MS/MS in brain regions; assay type: in vivo; design: key to Acetylcholine level: ↔: No significant alterations; ↑: significant increase; ↑↑: additional significant increase vs. ST-2223-treated mice; ↓: significant decrease; settings: for Acetylcholine level: ARP 1 mg/kg i.p. chronic, vs VEH-treated BTBR mice
# Procedure: as §1, §2
# [7] = test system: BTBR mice; assay: Open field locomotor test (OFL), anxiety-like behavior and locomotion; assay type: in vivo; settings: ARP 1 mg/kg i.p. chronic
# Procedure: as §1
# Open field locomotor test (OFL) systematically assesses exploratory activity based on subjecting an animal to an unfamiliar environment whose escape is prevented by surrounding walls. It is a model of anxiety-like behavior, suitable for assessing motor activity as a reaction to an unknown environment, i.e., locomotion motivated by exploration. Both general locomotor activity and anxiety-related behaviors were assessed as the mice were placed individually inside an open field arena (45 × 45 × 30 cm) and were allowed to move freely for 10 min [80]. Mice were introduced into the center area of the arena (23 × 23 cm) and given 5 min habituation before actual behaviors recording. The overall distance moved inside the complete arena and time spent in the center and periphery was recorded for 10 min using CCD camera-assisted motion tracking equipment and software program (EthoVision 3.1, Noldus Information Technology, The Netherlands). Measurements obtained included total distance traveled and center and periphery time spent for […]. After each testing sessions, chambers we cleaned with 70% ethanol, and enough time was allowed for ethanol evaporation and odor dissipation. When evaluating the results, more time spent in the center indicated low levels of anxiety-like behaviors and total distance travelled represented locomotor activity.
smiles,measurement,setting,value
"O=C1CCc2ccc(OCCCCN3CCN(c4cccc(Cl)c4Cl)CC3)cc2N1 [ARP, aripiprazole, reference compound]",Dopamine level,[1]; Cerebellum,↓^b
same,Dopamine level,[1]; Hippocampus,↓^b
same,Dopamine level,[1]; Prefrontal cortex,↔
same,levels of histamine in brain regions,[2]; p < 0.05,"increased the levels of histamine in the cerebellum, striatum, and hippocampus"
same,Histamine level,[2]; Cerebellum,↑ ^b
same,Histamine level,[2]; Hippocampus,↑ ^b
same,Histamine level,[2]; Prefrontal cortex,↔
same,DA levels in dialysate,[3],significant increase of DA levels in dialysate
same,preference to novel mouse (NM) over familiar mouse (FM) vs VEH-treated BTBR mice,[4],enhanced preference to stranger NM over FM
same,"sociability, time exploring NM compared to NO",[5],markedly increased sociability
same,exploring time spent with NM vs VEH-treated BTBR mice,[5]; p < 0.001,significantly improved exploring time spent with NM
same,acetylcholine levels,"[6]; ARP 1 mg/kg chronic, p < 0.05","signified increase in the levels of acetylcholine in the prefrontal cortex, cerebellum, and striatum tissues"
same,Acetylcholine level,[6]; Cerebellum,↑ ^b
same,Acetylcholine level,[6]; Hippocampus,↔
same,Acetylcholine level,[6]; Prefrontal cortex,↑ ^b
same,Acetylcholine level,[6]; Striatum,↑ ^b
same,abnormal anxiety observed by BTBR mice,[7],failed to restore the abnormal anxiety
same,time spent in the periphery,[7],no group differences
same,total distance travelled vs VEH-treated BTBR mice,[7]; p < 0.01,significantly decreased the total distance travelled
